Among the test systems are SF-539 CNS; UO-31 renal; NCI-H226 lung; HCT-116 colon; 786-0 renal; RPMI-8226 leukemia; NCI-H522 lung; MALME-3M melanoma; NCI-H23 lung; TK-10 renal.
What all share (assay): NCI anticancer screen, dose series, 48 h

“And” between values parts separate entries of the source, which are not always exact repeats. Equal entries are not always repeated.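 All cell lines were grown in 96-well plates and treated with compound for 48 hours. At the GI50, growth is halved. At the TGI there is no net growth.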

For the compound `CCCCCCN(CCCCCC)C(=N)c1ccnc2ccccc12`, the GI50 with SF-539 CNS is 5120 nM; in the assay on UO-31 renal, 708 nM; in the assay on NCI-H226 lung it was 11.8 µM; in the assay on HCT-116 colon, 1940 nM; in the assay with 786-0 renal, 2820 nM; in the assay on RPMI-8226 leukemia it was 2930 nM. In addition, the GI50 with NCI-H522 lung is 2550 nM; in the assay on MALME-3M melanoma, 2250 nM; in the assay on NCI-H23 lung, 6.9 µM; in the assay on TK-10 renal, 2150 nM. For the same compound, the TGI stood at 17.5 µM with SF-539 CNS; 13 µM with UO-31 renal; 26.7 µM in the assay with NCI-H226 lung; 14.1 µM with HCT-116 colon; 12.5 µM in the assay with 786-0 renal; 11.6 µM with RPMI-8226 leukemia. In addition, the TGI in the assay with NCI-H522 lung stood at 11 µM; with MALME-3M melanoma, 5.64 µM; in the assay on NCI-H23 lung, 23.4 µM; in the assay on TK-10 renal, 9.67 µM.

For the compound `CC1(C)CCC(=O)c2c(O)ccc(O)c21`, the TGI with SF-539 CNS, in the assay with UO-31 renal, in the assay with NCI-H226 lung, in the assay with HCT-116 colon, with 786-0 renal and in the assay on RPMI-8226 leukemia was above 100 µM each time. Moreover, the TGI in the assay with NCI-H522 lung, in the assay on MALME-3M melanoma, in the assay with NCI-H23 lung and in the assay on TK-10 renal was above 100 µM throughout.

In the case of `COc1cccc(-c2nn(-c3ccccc3)cc2-c2ccnc(NCCNS(=O)(=O)c3ccc(C(F)(F)F)cc3)c2)c1`, the GI50 with SF-539 CNS was 2480 nM; with UO-31 renal, 2610 nM; with NCI-H226 lung it was 5.77 µM; in the assay on HCT-116 colon, 3270 nM; in the assay with 786-0 renal, 2630 nM; with RPMI-8226 leukemia it was 2420 nM. Besides, the GI50 is 2330 nM in the assay on NCI-H522 lung, 2330 nM in the assay on MALME-3M melanoma, 3.23 µM in the assay on NCI-H23 lung and 2390 nM with TK-10 renal. For the same compound, the TGI is 6.28 µM in the assay on SF-539 CNS; above 100 µM in the assay with UO-31 renal; above 100 µM in the assay on NCI-H226 lung; 15.8 µM in the assay on HCT-116 colon; 21.4 µM with 786-0 renal; 7.86 µM in the assay with RPMI-8226 leukemia. The TGI was 12.5 µM in the assay with NCI-H522 lung, 6.81 µM in the assay with MALME-3M melanoma, above 100 µM in the assay with NCI-H23 lung and 9.88 µM with TK-10 renal.

As for `O=c1c(O)c(-c2ccc(O)c(O)c2)oc2cc(O)ccc12`, the TGI with SF-539 CNS was 26.7 µM; in the assay on UO-31 renal it was 23.4 µM; with NCI-H226 lung, 39.5 µM; in the assay with HCT-116 colon, 26.2 µM; in the assay with 786-0 renal it was above 91.5 µM; in the assay with RPMI-8226 leukemia, above 79.9 µM. Also, the TGI in the assay on NCI-H522 lung is 45.3 µM; with MALME-3M melanoma, above 77 µM; with NCI-H23 lung it was 31.8 µM; with TK-10 renal, above 88.8 µM.

As to `CCC[CH2][Sn]1([CH2]CCC)[O]C(c2ccccn2)S(=O)(=O)[O]1` (stereo not given), the GI50 in the assay on SF-539 CNS is 1740 nM; with UO-31 renal, 13600 nM; in the assay with NCI-H226 lung, 16.2 µM; in the assay with HCT-116 colon, 11000 nM; in the assay on 786-0 renal, 2120 nM; in the assay on RPMI-8226 leukemia, 2230 nM. The GI50 with NCI-H522 lung was 1180 nM; with MALME-3M melanoma it was 1630 nM; in the assay on NCI-H23 lung, 1.72 µM; with TK-10 renal it was 2540 nM. The TGI with SF-539 CNS was found to be 3.93 µM; with UO-31 renal, 26.6 µM; in the assay with NCI-H226 lung, 30 µM; in the assay with HCT-116 colon it was 22.9 µM; with 786-0 renal, 4.11 µM; in the assay with RPMI-8226 leukemia, 6.46 µM. For the same compound, the TGI was found to be 2.47 µM with NCI-H522 lung, 3.27 µM with MALME-3M melanoma, 3.5 µM with NCI-H23 lung and 5.84 µM in the assay with TK-10 renal.

In the case of `O=C(OC(C(=O)O)C(OC(=O)c1ccccc1)C(=O)O)c1ccccc1` (stereo not given) (tested in a mixture with another compound), the TGI was above 100 µM with SF-539 CNS; above 100 µM with UO-31 renal; above 100 µM with NCI-H226 lung; 55 µM in the assay on HCT-116 colon; above 100 µM in the assay on 786-0 renal; above 100 µM in the assay with RPMI-8226 leukemia. The TGI in the assay with NCI-H522 lung was 55.4 µM; in the assay on MALME-3M melanoma, above 100 µM; in the assay on NCI-H23 lung it was > 100 µM and 84.2 µM; with TK-10 renal it was above 100 µM.

Regarding `CCN(Cc1ccc(F)cc1)c1ccc(CO)c(Cl)c1`, the GI50 is 15100 nM with SF-539 CNS; 3020 nM in the assay on UO-31 renal; 0.0306 µM in the assay with NCI-H226 lung; 66.1 nM with HCT-116 colon; 4600 nM with 786-0 renal; 3680 nM with RPMI-8226 leukemia. The GI50 in the assay with NCI-H522 lung was 14500 nM; in the assay on MALME-3M melanoma, 15000 nM; with NCI-H23 lung, 5.79 µM; with TK-10 renal, 36.6 nM. For the same compound, the TGI worked out at 35.1 µM in the assay with SF-539 CNS; 31.5 µM in the assay with UO-31 renal; 0.116 µM in the assay with NCI-H226 lung; 3.02 µM in the assay with HCT-116 colon; 23.3 µM in the assay on 786-0 renal; 36.3 µM with RPMI-8226 leukemia. Besides, the TGI with NCI-H522 lung stood at 40.1 µM; with MALME-3M melanoma, 35.9 µM; in the assay on NCI-H23 lung it was 49.1 µM; with TK-10 renal, 0.181 µM.

Take `COc1cc(N2CCC(N3CCN(C)CC3)CC2)ccc1Nc1ncc(Cl)c(Nc2ccccc2P(C)(C)=O)n1`: the GI50 in the assay with SF-539 CNS was 2100 nM; in the assay on UO-31 renal, 734 nM; in the assay on NCI-H226 lung it was 0.417 µM; with HCT-116 colon, 1090 nM; with 786-0 renal, 1120 nM; in the assay with RPMI-8226 leukemia it was 3890 nM. Also, the GI50 was 759 nM in the assay with NCI-H522 lung, 7660 nM in the assay on MALME-3M melanoma, 1.62 µM in the assay with NCI-H23 lung and 296 nM in the assay on TK-10 renal. Besides, the TGI in the assay on SF-539 CNS is 7.5 µM; with UO-31 renal, 2.7 µM; in the assay with NCI-H226 lung, 5.21 µM; in the assay with HCT-116 colon, 13.3 µM; with 786-0 renal it was 7.59 µM; with RPMI-8226 leukemia it was 39.8 µM. The TGI is 17.3 µM in the assay on NCI-H522 lung, above 100 µM in the assay on MALME-3M melanoma, above 100 µM with NCI-H23 lung and 3.09 µM in the assay on TK-10 renal.

The values are drawn from PubChem BioAssay (NCI).
